These are literature values, as cited in patent publication US20070116750A1, “Compositions for disrupting and inhibiting reconstitution of wound biofilm” (priority 2005, published 2007).

The test system of this series is established biofilm. The note with it: applied at full strength to an established biofilm.

Consider `OCl` [sodium hypochlorite], for which the biofilm killed is reported as 50%.
